Source: patent publication US20130059866A1, “NOVEL PIPERIDINO-DIHYDROTHIENOPYRIMIDINE SULFOXIDES AND THEIR USE FOR TREATING COPD AND ASTHMA” (BOEHRINGER INGELHEIM INTERNATIONAL GMBH, priority 2011, published 2013)
pIC50: −log10 of the molar value.

Columns and labels:
[1] = molecular target: T1, PDE4B (Homo sapiens, UniProt Q07343); assay: PDE4B Scintillation Proximity (SPA) Assay; assay type: biochemical; details: PDE4B active site fragment amino acids 152-484, [3H]cAMP, 30° C., one hour; read-out: Experimentally determined IC50-value for PDE4B inhibition
T1 construct: active site fragment comprising the amino acids 152-484
From the text: The IC50-values of the compounds of the invention (Example Compounds 1 and 2) and of the above-mentioned prior art compounds A to D with respect to their PDE4B-inhibiting ability have been determined with a Scintillation Proximity (SPA) Assay (GE Healthcare, No. TRKQ7090).
The Scintillation Proximity (SPA) Assay is based on the detection of the different affinities of the cyclic 3′-5′-adenosine monophosphate (cAMP, low affinity) and the linear 5′-adenosine monophosphate (AMP, high affinity) to yttrium-silicate-scintilator beads. The cAMP-specific phosphodiesterase (PDE) PDE4B cleaves the 3′-phosphodiester bond of the tritium-labelled-[^3H]cAMP to the [^3H]5′-AMP. This [^3H]5′-AMP associates with the scintillator beads because of their higher affinity and causes scintillations (light flashes) which can be measured in a Wallac Microbeta Scintillation Counter.
10 μl of a [^3H]cAMP-solution (0.05 μCi in H2O, 10-30 Ci/mmol) are added to 89 μl of a PDE4B-enzyme-solution (active site fragment comprising the amino acids 152-484; 0.15-0.18 ng) in assay buffer (50 mM Tris HCl pH 7.5; 8.3 mM MgCl2; 1.7 mM ethylene glycol tetraacetic acid (EGTA); 0.25 mg/ml bovine serum albumin (BSA)) and this mixture is incubated at 30° C. for one hour
a) without the compound to be tested (in the presence of 1 μl dimethylsulfoxide (DMSO), corresponding to 1% DMSO) and b) in the presence of the compound to be tested in a concentration of 125 μM, 25 μM, 5 μM, 1 μM, 200 nM, 40 nM, 8 nM, 1.6 nM, 0.32 nM, 0.064 nM, 0.0128 nM (dilution series in 5er-steps beginning from 125 μM until 0.0128 nM, in the presence of 1% DMSO).
After this incubation the reaction is stopped by the addition of 50 μl of bead-solution (500 mg beads/35 ml H2O, 18 mM zinc sulfate). In the following 45 minutes the beads have the opportunity to form a sediment. After that the scintillations are measured in the scintillation counter. If the tested compound is able to inhibit the enzymatic activity of the PDE4B-enzyme, less [^3H]AMP depending on the concentration of the tested compound is produced and less scintillations are measurable. […] The IC50-value stands for the compound concentration at which the PDE4B enzyme activity is inhibited to a half maximal value. Therefore the lower the IC50-value is the better is the PDE4B inhibition.

[2] = system: conscious rats; assay: Gastrointestinal (intestinal) transit in conscious rats (barium sulfate test meal); assay type: in vivo, rat; details: all tested doses up to the 30-fold ED50 dose p.o.
Experimental: (§1) In order to evaluate whether the compounds of the present invention lead to gastrointestinal side effects the compounds of the invention have been administered to rats 30 minutes before the rats were fed with a test meal comprising barium sulfate. After that it was tested whether gastric emptying and/or gastrointestinal transit in these rats was affected by the presence of these compounds.
The effects of the compounds Example 1 and Example 2 on gastric emptying and gastrointestinal transit in conscious rats has been investigated as described below. Wistar rats of both sexes weighing 130-160 g (ages: male 7 wk, female 8 wk) were used. […] Gastric emptying as well as small intestinal propulsion are determined using a barium sulfate test meal. […]
The length of gut traversed with barium sulfate in relation to the whole length of the gut is determined by direct measurements using a ruler.
The length of gut traversed with barium sulphate (as judged by visual inspection) in relation to the whole length of the gut (from the pylorus to the rectum) is determined by direct measurements using a ruler.
Intestinal transit is calculated as the percentage movement of barium sulphate in the intestine in relation to the whole length of the gut. […]
Data are expressed as mean±standard deviation (SD). […]

[3] = system: LPS-induced neutrophil influx into bronchoalveolar lavage fluid of male Wistar rats; assay: Inhibition of LPS-induced neutrophil influx into bronchoalveolar lavage fluid (LPS-induced lung inflammation model); assay type: in vivo; details: ED50 found in efficacy studies in the rat
Experimental: The anti-inflammatory activity of Examples 1 and 2 and of Prior art compounds A and D was assessed in an in vivo LPS-induced lung inflammation model in rats.
As a measure of the pharmacological potency of the above mentioned compounds the half-maximal effective dose (ED50) in regard to the inhibition of lipopolysaccharide-induced (LPS-induced) neutrophil influx into the bronchoalveolar lavage fluid (BALF) was determined by assessing the dose response relationship. Bacterial endotoxins (lipopolysaccharides [LPS]) are components of the outer bacterial cell membrane which play an important role in the pathogenesis of infections with gram-negative bacteria. It is known that inhalation of such aerosolized LPS induces a dose-dependent increase in neutrophils to lung tissues and airspaces in rats which may be detected by analyzing the amount of neutrophils in the bronchoalveolar lavage fluid (BALF). […]
Determination of neutrophil content of the BALF was performed using an ADVIA 120 blood hemacytometer (Bayer Diagnostics). Neutrophil data were normalised (Positive Control (=LPS treatment alone)=100%, Negative Control (no LPS treatment, administration of “vehicle only”)=0%) and expressed as percent of LPS control. The ED50 was calculated using a nonlinear fit (with the Graph Pad Prism software and a sigmoidal dose response fit). […]

[4] = system: conscious rats; assay: Gastric emptying in conscious rats (barium sulfate test meal); assay type: in vivo, rat
Experimental: as §1
The effects of the compounds Example 1 and Example 2 on gastric emptying and gastrointestinal transit in conscious rats has been investigated as described below. Wistar rats of both sexes weighing 130-160 g (ages: male 7 wk, female 8 wk) were used. The animals are obtained from an approved local distributor, a minimum of four days quarantine is required before use, during which time the animals are maintained under routine animal care procedures. Groups of up to 5 animals are housed in cages in a room with controlled temperature and humidity and a light/dark cycle with the lights on from 6 a.m. to 6 p.m. The animals have access to normal rodent chow and water ad libitum. The animals are transported to the laboratory on the day of experimentation. Gastric emptying as well as small intestinal propulsion are determined using a barium sulfate test meal.
Five rats Crl:WI(Han) of each sex (n=10) were used. The animals were deprived of food 17 h prior to the experiment but allowed free access to water. The drug under investigation (drug was suspended to the concentration of 10 ml/kg body weight in 0.5% Natrosol solution) or the negative control (vehicle alone was given 10 ml/kg body weight) was administered 30 min (p.o.) before the test meal at doses calculated to be 3-fold, 10-fold or 30-fold the ED50 found in efficacy studies in the rat.
The test meal (suspension of 7.5 g barium sulfate in 10 ml salt-free water) is given orally by gavage at a dose of 2 ml/100 g body weight. Thirty minutes after the administration of the test meal the animals were killed in deep isoflurane anaesthesia by cervical dislocation. The stomach and the intestine were then exposed by laparatomy and removed.
The removed stomach was weighed, then incised, the contents removed and the empty stomach is weighed again.
The gastric content was calculated from the weight difference between the filled and empty stomach and normalized to 100 g body weight. Thus, an increase in weight difference indicated an impaired gastric emptying, whereas a decrease in weight difference indicated an enhanced gastric emptying.
Data are expressed as mean±standard deviation (SD). For each dose, comparisons were performed using an analysis of variance (ANOVA) and a post hoc Dunnett test to compare the various groups to the controls when the ANOVA was significant. p<0.05 was considered significant.

T1 sequence (Q07343 324-656): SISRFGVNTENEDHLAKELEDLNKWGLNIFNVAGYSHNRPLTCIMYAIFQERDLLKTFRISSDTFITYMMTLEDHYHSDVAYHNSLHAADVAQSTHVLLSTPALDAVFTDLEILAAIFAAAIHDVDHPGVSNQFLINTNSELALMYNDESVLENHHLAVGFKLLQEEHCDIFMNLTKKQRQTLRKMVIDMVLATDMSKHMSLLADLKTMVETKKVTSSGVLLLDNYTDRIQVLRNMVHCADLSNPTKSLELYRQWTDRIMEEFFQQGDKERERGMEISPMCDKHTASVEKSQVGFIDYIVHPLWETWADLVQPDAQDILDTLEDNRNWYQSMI

pIC50 [1] | intestinal transit vs negative control [2] | SMILES | ED50 as restated in the dose table of the gastrointestinal study [3] | other results
8.37 | no significant differences | [O-][S+]1CCc2nc(N3CCC(c4ccc(Cl)cc4)CC3)nc(NC3(CO)CCC3)c21 (single isomer, unassigned) [Example 1] | (ED50 = 0.31 mg/kg BW | gastric emptying vs negative control ([4]; 3-fold ED50 dose p.o., 30 min before test meal): no relevant differences; gastric emptying vs negative control ([4]; 10-fold ED50 dose p.o., 30 min before test meal): no relevant differences; gastric emptying vs negative control (weight difference per body weight) ([4]; 30-fold ED50 dose p.o., 30 min before test meal): only a very moderate enhancement
7.18 |  | [O-][S+]1CCc2nc(N3CCC(c4c[nH]cn4)CC3)nc(NC3(CO)CC3)c21 (centres unmarked) [Prior art compound B] |  | 
7.36 |  | [O-][S+]1CCc2nc(N3CCC(c4ccncc4)CC3)nc(NC3(CO)CC3)c21 (centres unmarked) [Prior art compound C] |  | 

Continued, compound first:

SMILES | pIC50 [1] | intestinal transit vs negative control [2] | ED50 as restated in the dose table of the gastrointestinal study [3] | other results
[O-][S+]1CCc2nc(N3CCC(c4ncc(Cl)cn4)CC3)nc(NC3(CO)CCC3)c21 (single isomer, unassigned) [Example 2] | 8.14 | no relevant differences | (ED50 = 0.1 mg/kg BW | gastric emptying vs negative control ([4]; all tested doses (3-, 10-, 30-fold ED50) p.o.): no relevant differences
[O-][S+]1CCc2nc(N3CCC(c4ccc(Cl)cc4)CC3)nc(NC3(CO)CC3)c21 (centres unmarked) [Prior art compound A] | 8.48 |  |  | 
[O-][S+]1CCc2nc(N3CCC(c4cccc(Cl)c4)CC3)nc(NC3(CO)CC3)c21 (centres unmarked) [Prior art compound D] | 8.14 |  |  | 
